Assay results from patent publication US20250359547A1, “ALKOXYLATED ALKANOLS FOR ENHANCING THE ACTIVITY OF ANTIMICROBIAL AGENTS” (BASF SE, priority 2022, published 2025).

System: Escherichia coli (E. coli DSM 682)
Assay: Bactericidal activity of cleaner/disinfecting formulations according to DIN EN 1276-2010 under dirty conditions
Format: cell-based
Settings: no ethoxylated alkanol, 0.3% bovine albumin, 35° C., 5 min contact time
Description: For biological activity testing, the following microorganisms were used: Escherichia coli(E. coli DSM 682)
Lutensol® XP 40 and benzalkonium chloride (BAC) were formulated into a dilutable concentrated hard-surface cleaner. For comparison, corresponding formulations containing Lutensol® XP 70 or Lutensol® A 7 N instead of Lutensol® XP 40 were also prepared. The finished formulations were pre-dissolved 1:80 in standardized hard water (DIN EN 1276-2010) and then diluted to 80% by adding 1 ml of the inoculate and 1 ml of bovine albumin solution to 8 ml of the pre-dissolved cleaner, so that in-test a dilution of 1:100 was obtained.
Antimicrobial testing of the above formulations in 1:100 dilution was done according to European Standard (DIN EN 1276-2010) under dirty conditions, i.e. additional soiling of 0.3% bovine albumin at 35° C. and […] contact time. Neutralization was done using the Saponin-containing neutralizer as described in DIN EN 1276 (30 g/l Polysorbate 80+30 g/l Saponin+3 g/l Lecithin). Results are documented in the table below as logarithmic reduction (Ig R) in comparison to the number of microorganisms used for the test.
Benzalkonium chloride (BAC) and one of Lutensol® XP 30, Lutensol® XP 40 and Lutensol® XP 50 were formulated into a dilutable concentrated hard-surface cleaner. The finished formulations were pre-dissolved 1:80 in standardized hard water (DIN EN 1276-2010) and then diluted to 80% by adding 1 ml of the inoculate and 1 ml of bovine albumin solution to 8 ml of the pre-dissolved cleaner, so that in-test a dilution of 1:100 was obtained.
Antimicrobial testing of the above formulations in 1:100 dilution was done according to European Standard (DIN EN 1276-2010) under dirty conditions, i.e. additional soiling of 0.3% bovine albumin at 35° C. and 5 min contact time. Neutralization was done using the Saponin-containing neutralizer as described in DIN EN 1276 (30 g/l Polysorbate 80+30 g/l Saponin+3 g/l Lecithin). Results are documented in the table below as logarithmic reduction (Ig R) in comparison to the number of microorganisms used for the test. […]

SMILES: CCCCCCCCCC[N+](C)(C)CCCCCCCCCC.[Cl-] [DDAC, didecyldimethylammonium chloride]
- E. coli logarithmic reduction (lg R) (Example 3, DDAC 20 ppm in-test): 0.7 lg R

SMILES: CCCCCCCCCCCC[N+](C)(C)Cc1ccccc1.[Cl-] [BAC, lauryl dimethyl benzyl ammonium chloride]
- E. coli logarithmic reduction (lg R) (Example 1, BAC 40 ppm in-test, 1:100 dilution, pH ca. 8): <0.87 lg R
- E. coli logarithmic reduction (lg R) (Example 2, BAC 40 ppm in-test): 0.4 lg R
